From PubChem BioAssay AID449762 (Southern Research Specialized Biocontainment Screening …, 2010)
Inconclusive results are not listed.

Test system: M. tuberculosis H37Rv growth inhibition, 7H9 media
Experiment: M. tuberculosis growth inhibition, HTS (AID 449762);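 further: bacterial growth assessed after seven days of incubation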
Settings: for IC90: measured here: IC90 growth inhibition

## CCCC1CC(C)(c2csc(Nc3ccc(OCC)cc3)n2)OC1=O (stereo not drawn)
  IC50: 33.5 µM
  IC90: 46.5 µM

## CCOc1ccc(/C=N/Nc2ccc(Cl)nn2)c(O)c1
  IC50: 4.49 µM
  IC90: 7.48 µM

## Cc1cccc(OCc2n(CC(=O)OC3CC(C)CCC3C(C)C)c3ccccc3[n+]2C)c1 (stereo not drawn)
  IC50: 7.43 µM
  IC90: 9.6 µM

## O=C1CC(=C(c2ccccc2)c2ccccc2)C(=O)N1CCCCN1CCN(c2ccccc2)CC1
  IC50: 22.8 µM
  IC90: 26 µM

## CN(c1ccccc1)S(=O)(=O)c1cccc(C(=O)NCc2ccccc2CN2CCCC2)c1
  IC50: 48.8 µM
  IC90: 55.4 µM

## CCC(C)NC(=O)c1c(N)n(/N=C/c2ccccn2)c2nc3ccccc3nc12 (stereo not drawn)
  IC50: 9.73 µM
  IC90: 14.3 µM

## O=C(Nc1ccc2nsnc2c1)NC1CCCCC1
  IC50: 26 µM
  IC90: > 50 µM

## Cc1nn(-c2ccccc2)nc1C(=O)c1c(C)[nH]n(-c2ccccc2)c1=O
  IC50: 9.7 µM
  IC90: 18.7 µM

## Cc1ccc(N/C=C2\C(=O)C3(C)CCC2C3(C)C)cc1C (stereo not drawn)
  IC90: > 100 µM

## COc1cccc(CC2(CO)CCCN(Cc3[nH]c4ccc(C)cc4c3C)C2)c1 (stereo not drawn)
  IC50: 44 µM
  IC90: 50.4 µM

## CCCCN(CCCC)CCC(O)c1cc2c(Cl)cc(Cl)cc2c2cc(C(F)(F)F)ccc12 (stereo not drawn)
  IC50: 16.6 µM
  IC90: 25.7 µM

## Cc1cccc(NS(=O)(=O)c2ccc(C(=O)N3CCN(c4ccccc4O)CC3)cc2)c1C
  IC50: 75.3 µM
  IC90: > 100 µM

## Cc1nc(-c2ccc(Cl)cc2)sc1C1(C)CC(c2ccc(C#N)cc2)=NO1 (stereo not drawn)
  IC50: 51.4 µM
  IC90: > 100 µM

## COc1ccc(-c2oc3ccc(-c4ccc(OC)nc4)cc3c2C#CC2(O)CCCCC2)cc1
  IC50: 96.2 µM
  IC90: > 100 µM

## O=c1c2ccccc2nc(/C=C/c2ccccc2)n1-c1ccc(O)cc1
  IC90: > 100 µM

## Cc1ccc(NC(=O)C2=C(O)CCn3c2nc2ccccc23)cc1
  IC50: 1.21 µM
  IC90: 20.6 µM

## Cc1c(CCC(=O)NCCCn2ccnc2)c(=O)oc2c(C)c3occ(C(C)(C)C)c3cc12
  IC50: 23.1 µM
  IC90: 36.3 µM

## CCOC(=O)C1=C(C)NC(SCC(=O)Nc2nc(C)cs2)=C(C#N)C1c1cccs1 (stereo not drawn)
  IC50: 34.4 µM
  IC90: 48.7 µM

## Cc1ccc(/C=C/C(=O)N2CC(C)CC(C)C2)o1 (stereo not drawn)
  IC50: 8.06 µM
  IC90: 22.1 µM

## CCCOc1cccc(-c2nn(-c3ccccc3)cc2/C=C(\C#N)C(=O)NCCCn2ccnc2)c1
  IC50: 44.7 µM
  IC90: 62.3 µM

## CCCCC(O)(CCCC)C(=O)NN(C(=O)CCl)c1ccccc1
  IC50: 3.9 µM
  IC90: 10.5 µM

## CC(C)NC(=O)c1onc(CSc2ccc(F)c(F)c2)c1C(=O)O
  IC50: 11 µM
  IC90: 18.9 µM

## COc1ccc(-n2cc(CNCCc3cscn3)c(-c3ccccc3Cl)n2)cc1
  IC50: 25.6 µM
  IC90: 29.7 µM

## CC(Oc1ccc(F)cc1)C(=O)Nc1sc2c(c1C(=O)NCc1cccnc1)CCCC2 (stereo not drawn)
  IC50: 45 µM
  IC90: 52.5 µM

## CN(CCCNC(=O)c1cc2c(Cl)nc3ccccc3c2s1)Cc1ccccc1
  IC50: 41.1 µM
  IC90: 61 µM

## COc1cccc(-c2cnc(NCc3cc(Cl)ccc3O)n2C)c1
  IC50: 19.1 µM
  IC90: 22.9 µM

## NC(=O)c1ccc(N=Cc2ccc([N+](=O)[O-])s2)cc1
  IC50: 12.6 µM
  IC90: 13.6 µM

## Cc1ccc(C2=NNC3(CCOC(C)(C)C3)S2)cc1 (stereo not drawn)
  IC50: 11.1 µM
  IC90: 14.9 µM

## COc1ccc(NS(=O)(=O)c2ccc3nc(COc4cccc5ccccc45)[nH]c3c2)cc1
  IC50: 63.2 µM
  IC90: > 100 µM

## Cc1nn(-c2ccccn2)c2c1-c1nc(N3CCOCC3)ncc1CC2
  IC50: 12.9 µM
  IC90: > 100 µM

## CC(=O)Nc1ccc(S(=O)(=O)Nc2ccc(N3CCCCC3)cc2)cc1
  IC50: 12.4 µM
  IC90: 13.8 µM

## CN(C)CCNc1ncnc2c1sc1nc(-c3ccccc3)c3c(c12)CCCC3
  IC50: 17.7 µM
  IC90: 20.7 µM

## COc1ccc(/C(O)=C/Sc2nnc(Cc3ccccc3)o2)cc1
  IC50: 26.3 µM
  IC90: > 100 µM

## CCc1c(C2(O)CCCCC2)[nH]c2ccc(C(F)(F)F)cc12
  IC50: 28.4 µM
  IC90: > 50 µM

## CC[C@@H](C)[C@H](CN[C@H](CNC)C(C)C)NC[C@@H](C)c1ccc(CC(C)C)cc1
  IC50: 11.3 µM
  IC90: 12.6 µM
